Reference: patent US7763273B2, “Method for reducing methane production emanating from the digestive activities of an animal” (DSM IP Assets B.V., priority 2002, dated 2010)

System: strained rumen fluids
Assay: In vitro incubation of sheep rumen fluid with ground diet: formation of methane and VFA
Format: cell-based
Parameters: Methane production / Total VFA: unit not given here
Settings: for Effect on the formation of VFA (in words) / Effect on the formation of methane (in words): in vitro, versus control
Protocol: The efficacy of some essential oil compounds obtainable from plants was tested regarding their influence on the formation of methane and VFA in an in vitro system.
According to the test 200 mg of a ground diet, containing 50% hay, 30% barley, 9.5% molasses, 10% fishmeal and 0.5% vitamins, was added to wheaton bottles. To a triplicate of bottles containing the diet, 0.6 ml of a dissolution of one of the essential oil compounds mentioned in the table below, into propylene glycol was added to each bottle.
Three sheep were fed on the ground diet and strained rumen fluids in amounts of 500 ml were mixed with 1000 ml of Colemans Simplex buffer. The buffer had the following composition.
30 ml of the combined rumen fluid and the buffer were then introduced into the bottles, and their contents were incubated under CO2 at 39° C. for 24 hours. The methane production and the total amount of VFA was then measured. […]

[1] = 0.6 ml dissolution in propylene glycol per bottle, 200 mg diet, 30 ml rumen fluid/buffer, under CO2, 39° C., 24 hours

| Compound | Effect on the formation of VFA (in words) | Effect on the formation of methane (in words) | Methane production [1] | Total VFA [1] |
| --- | --- | --- | --- | --- |
| c1ccc2ncccc2c1 [Quinoline] | promoting effect | methane-reducing effect | – | – |
| Vanilla | promoting effect | methane-reducing effect | 1055 | 1300 |
| Cc1ccc(C(C)C)c(O)c1 [Thymol] | notable reducing effect | strong methane-reducing effect | – | – |
